# Calls of active or inactive are those of the source. No cut-off for these calls is given here.
# Legend:
# [1] = system: Digitaria ciliaris; test: Herbicidal activity against Digitaria ciliaris assessed as seedling death under green house at 2 kg/ha at 25 degC measured after 4 weeks; type: functional, organism-based
# [2] = system: Echinochloa crus-galli; test: Herbicidal activity against Echinochloa crus-galli (barnyard grass) assessed as seedling death under green house at 2 kg/ha at 25 degC measured after 4 weeks; type: functional, organism-based
# [3] = system: Amaranthus viridis; test: Herbicidal activity against Amaranthus viridis assessed as seedling death under green house at 1 kg/ha at 25 degC measured after 4 weeks; type: functional, organism-based
# [4] = system: Digitaria ciliaris; test: Herbicidal activity against Digitaria ciliaris assessed as seedling death under green house at 0.5 kg/ha at 25 degC measured after 4 weeks; type: functional, organism-based
# [5] = system: Digitaria ciliaris; test: Herbicidal activity against Digitaria ciliaris assessed as seedling death under green house at 0.25 kg/ha at 25 degC measured after 4 weeks; type: functional, organism-based
# [6] = system: Amaranthus viridis; test: Herbicidal activity against Amaranthus viridis assessed as seedling death under green house at 0.5 kg/ha at 25 degC measured after 4 weeks; type: functional, organism-based
# [7] = system: Persicaria lapathifolia; test: Herbicidal activity against Persicaria lapathifolia assessed as seedling death under green house at 1 kg/ha at 25 degC measured after 4 weeks; type: functional, organism-based
# [8] = system: Glycine max; test: Toxicity in Glycine max cv. Tamahomare (soybean) assessed as seedling death under green house at 0.25 kg/ha at 25 degC measured after 4 weeks by crop selectivity assay; type: organism-based; details: in vivo, 672 h
# [9] = system: Digitaria ciliaris; test: Herbicidal activity against Digitaria ciliaris assessed as seedling death under green house at 1 kg/ha at 25 degC measured after 4 weeks; type: functional, organism-based
# [10] = system: Echinochloa crus-galli; test: Herbicidal activity against Echinochloa crus-galli (barnyard grass) assessed as seedling death under green house at 1 kg/ha at 25 degC measured after 4 weeks; type: functional, organism-based
# [11] = system: Echinochloa crus-galli; test: Herbicidal activity against Echinochloa crus-galli (barnyard grass) assessed as seedling death under green house at 0.25 kg/ha at 25 degC measured after 4 weeks; type: functional, organism-based
# [12] = system: Gossypium hirsutum; test: Toxicity in Gossypium hirsutum cv. Hakushuu (cotton) assessed as seedling death under green house at 0.25 kg/ha at 25 degC measured after 4 weeks by crop selectivity assay; type: organism-based; details: in vivo, 672 h
# [13] = system: Echinochloa crus-galli; test: Herbicidal activity against Echinochloa crus-galli (barnyard grass) assessed as seedling death under green house at 0.5 kg/ha at 25 degC measured after 4 weeks; type: functional, organism-based
# [14] = system: Triticum aestivum; test: Toxicity in Triticum aestivum cv. Nohrin-61 (wheat) assessed as seedling death under green house at 0.25 kg/ha at 25 degC measured after 4 weeks by crop selectivity assay; type: organism-based; details: in vivo, 672 h
# [15] = system: Persicaria lapathifolia; test: Herbicidal activity against Persicaria lapathifolia assessed as seedling death under green house at 0.5 kg/ha at 25 degC measured after 4 weeks; type: functional, organism-based
# [16] = system: Glycine max; test: Toxicity in Glycine max cv. Tamahomare (soybean) assessed as seedling death under green house at 0.5 kg/ha at 25 degC measured after 4 weeks by crop selectivity assay; type: organism-based; details: in vivo, 672 h
# [17] = system: Gossypium hirsutum; test: Toxicity in Gossypium hirsutum cv. Hakushuu (cotton) assessed as seedling death under green house at 0.5 kg/ha at 25 degC measured after 4 weeks by crop selectivity assay; type: organism-based; details: in vivo, 672 h
# [18] = system: Triticum aestivum; test: Toxicity in Triticum aestivum cv. Nohrin-61 (wheat) assessed as seedling death under green house at 0.5 kg/ha at 25 degC measured after 4 weeks by crop selectivity assay; type: organism-based; details: in vivo, 672 h
# [19] = system: Amaranthus viridis; test: Herbicidal activity against Amaranthus viridis assessed as seedling death under green house at 0.25 kg/ha at 25 degC measured after 4 weeks; type: functional, organism-based
# [20] = system: Persicaria lapathifolia; test: Herbicidal activity against Persicaria lapathifolia assessed as seedling death under green house at 0.25 kg/ha at 25 degC measured after 4 weeks; type: functional, organism-based
# [21] = system: Gossypium hirsutum; test: Toxicity in Gossypium hirsutum cv. Hakushuu (cotton) assessed as seedling death under green house at 1 kg/ha at 25 degC measured after 4 weeks by crop selectivity assay; type: organism-based; details: in vivo, 672 h
# [22] = system: Triticum aestivum; test: Toxicity in Triticum aestivum cv. Nohrin-61 (wheat) assessed as seedling death under green house at 1 kg/ha at 25 degC measured after 4 weeks by crop selectivity assay; type: organism-based; details: in vivo, 672 h
# [23] = system: Glycine max; test: Toxicity in Glycine max cv. Tamahomare (soybean) assessed as seedling death under green house at 1 kg/ha at 25 degC measured after 4 weeks by crop selectivity assay; type: organism-based; details: in vivo, 672 h
Structure (SMILES),Activity [3],Activity [4],Activity [5],Activity [6],Activity [8],Activity [9],Activity [10],Activity [12],Activity [13],Activity [14],Activity [16],Activity [17],Activity [18],Activity [19],other results
CCCCCCN(C)C(=O)COc1onc(C(F)(F)F)c1C,–,–,–,–,–,–,–,–,–,–,–,–,–,–,Activity [1]: Active; Activity [2]: Active
Cc1c(C(F)(F)F)noc1OCC(=O)N(C)c1ccccc1Br,Active,Active,Active,Active,Non-toxic,Active,Active,Non-toxic,Active,Non-toxic,–,–,–,–,Activity [7]: Active; Activity [11]: Active
CN(C(=O)COc1nnc(C(F)(F)F)s1)c1ccccc1,–,–,inactive,inactive,Non-toxic,–,–,Non-toxic,–,Non-toxic,Non-toxic,Non-toxic,Non-toxic,inactive,Activity [15]: inactive; Activity [20]: inactive
CN(C(=O)COc1cc(C(F)(F)F)no1)c1ccccc1,–,Active,–,–,–,Active,Active,–,–,–,Non-toxic,Non-toxic,Non-toxic,–,Activity [21]: Non-toxic
Cc1c(C(F)(F)F)noc1OCC(=O)N(C)c1ccccc1,Active,Active,–,–,–,Active,Active,–,Active,–,Non-toxic,Non-toxic,Non-toxic,–,Activity [22]: Non-toxic; Activity [23]: Non-toxic
CN(C(=O)COc1onc(C(F)(F)F)c1-c1ccccc1)c1ccccc1,–,Active,–,–,–,Active,Active,–,Active,–,Non-toxic,Non-toxic,Non-toxic,–,Activity [22]: Non-toxic; Activity [21]: Non-toxic; Activity [23]: Non-toxic
CN(C(=O)COc1nc2ccccc2s1)c1ccccc1 [MEFENACET],–,–,–,–,Non-toxic,–,–,Non-toxic,–,Non-toxic,Non-toxic,Non-toxic,Non-toxic,inactive,Activity [15]: inactive; Activity [20]: inactive
Cc1c(C(F)(F)F)noc1OCC(=O)N(C)c1cccc(F)c1,Active,Active,Active,Active,Non-toxic,Active,Active,Non-toxic,Active,Non-toxic,–,–,–,Active,Activity [7]: Active; Activity [11]: Active

# Source: ChEMBL document CHEMBL3045011, “Synthesis and Herbicidal Activities of 2-(5-Isoxazolyloxy)-acetamide Derivatives” (J Pestic Sci, 1998)
